For the data set the following is noted: human, in vivo.

On to `CCNCC#CCOC(=O)C(O)(c1ccccc1)C1CCCCC1` (stereo not shown) [DESOXY, desethyloxybutynin], for which the “t1/2 life of DESOXY compared to OXY” value is given as “shorter”.

The record behind these values is US20010009995A1, “Oxybutynin therapy” (priority 1998, published 2001).
